Data from US6441195B1, “Substituted sulphonylamino(thio) carbonyl compounds” (Bayer Aktiengesellschaft, priority 1995, dated 2002).

What was measured:
Type in all cases: in vivo
weeds [1] = assay: Pre-emergence test (greenhouse), activity against weeds; conditions: in words
In short: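 Compound formulated in acetone with alkylaryl polyglycol ether emulsifier, diluted in water, and watered onto soil about 24 h after sowing, dosed by application rate per unit area. Damage rated after three weeks as % versus untreated control (0% = no action).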

weeds [2] = assay: Post-emergence test (greenhouse), activity against weeds; conditions: in words
Procedure: (§1) Solvent: 5 parts by weight of acetone
(§2) Emulsifier: 1 part by weight of alkylaryl polyglycol ether
(§3) To produce a suitable preparation of active compound, 1 part by weight of active compound is mixed with the stated amount of solvent, the stated amount of emulsifier is added and the concentrate is diluted with water to the desired concentration.
(§4) Test plants which have a height of 5-15 cm are sprayed with the preparation of the active compound in such a way as to apply the particular amounts of active compound desired per unit area. The concentration of the spray liquor is chosen so that the particular amounts of active compound desired are applied in 2000 l of water/ha.
(§5) After three weeks, the degree of damage to the plants is rated in % damage in comparison to the development of the untreated control.
(§6) 0%=no action (like untreated control)

Maize [3] = assay: Post-emergence test/greenhouse, Maize; conditions: greenhouse, after three weeks
Procedure: as §1, §2, §3, §4, §5, §6

Digitaria = assay: Post-emergence test/greenhouse, Digitaria; conditions: greenhouse, after three weeks
Procedure: as §1, §2, §3, §4, §5, §6

Echinochloa = assay: Post-emergence test/greenhouse, Echinochloa; conditions: greenhouse, after three weeks
Procedure: as §1, §2, §3, §4, §5, §6

Lolium [4] = assay: Post-emergence test/greenhouse, Lolium; conditions: greenhouse, after three weeks
Procedure: as §1, §2, §3, §4, §5, §6

Sorghum [5] = assay: Post-emergence test/greenhouse, Sorghum; conditions: greenhouse, after three weeks
Procedure: as §1, §2, §3, §4, §5, §6

Amaranthus = assay: Post-emergence test/greenhouse, Amaranthus; conditions: greenhouse, after three weeks
Procedure: as §1, §2, §3, §4, §5, §6

Gallium = assay: Post-emergence test/greenhouse, Gallium; conditions: greenhouse, after three weeks
Procedure: as §1, §2, §3, §4, §5, §6

Matricaria [6] = assay: Post-emergence test/greenhouse, Matricaria; conditions: greenhouse, after three weeks
Procedure: as §1, §2, §3, §4, §5, §6

Stellaria = assay: Post-emergence test/greenhouse, Stellaria; conditions: greenhouse, after three weeks
Procedure: as §1, §2, §3, §4, §5, §6

Maize [7] = assay: Pre-emergence test/Greenhouse, Maize
In short: (§7)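 Percent damage relative to untreated control plants, scored three weeks after treatment, is the read-out (0% meaning no effect). Treatment consisted of watering the soil with an emulsified aqueous preparation roughly 24 h after seeds were sown, at constant water volume per area.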

Lolium [8] = assay: Pre-emergence test/Greenhouse, Lolium; conditions: after three weeks
In short: as §7

Poa = assay: Pre-emergence test/Greenhouse, Poa; conditions: after three weeks
In short: as §7

Sorghum [9] = assay: Pre-emergence test/Greenhouse, Sorghum; conditions: after three weeks
In short: as §7

Ambrosia = assay: Pre-emergence test/Greenhouse, Ambrosia; conditions: after three weeks
In short: as §7

Matricaria [10] = assay: Pre-emergence test/Greenhouse, Matricaria; conditions: after three weeks
In short: as §7

Solanum = assay: Pre-emergence test/Greenhouse, Solanum; conditions: after three weeks
In short: as §7

Soya beans = assay: Pre-emergence test/Greenhouse, Soya beans; conditions: in vivo
In short: as §7

| Structure (SMILES) | activity against weeds (weeds [1]) | activity against weeds (weeds [2]) | degree of damage to the plants (% damage vs untreated control), Maize (Maize [7]; in vivo) [%] | degree of damage to the plants (% damage vs untreated control), Soya beans (Soya beans) [%] | degree of damage, Maize (Maize [3]; 60 g of ai./ha) [%] | degree of damage, Echinochloa (Echinochloa; 60 g of ai./ha) [%] | degree of damage, Lolium (Lolium [4]; 60 g of ai./ha) [%] | degree of damage, Sorghum (Sorghum [5]; 60 g of ai./ha) [%] | degree of damage, Amaranthus (Amaranthus; 60 g of ai./ha) [%] | degree of damage, Gallium (Gallium; 60 g of ai./ha) [%] | degree of damage, Matricaria (Matricaria [6]; 60 g of ai./ha) [%] | degree of damage, Stellaria (Stellaria; 60 g of ai./ha) [%] | degree of damage to the plants (% damage vs untreated control), Lolium (Lolium [8]; 30 g of ai./ha) [%] | degree of damage to the plants (% damage vs untreated control), Poa (Poa; 30 g of ai./ha) [%] | degree of damage to the plants (% damage vs untreated control), Sorghum (Sorghum [9]; 30 g of ai./ha) [%] | degree of damage to the plants (% damage vs untreated control), Ambrosia (Ambrosia; 30 g of ai./ha) [%] | degree of damage to the plants (% damage vs untreated control), Matricaria (Matricaria [10]; 30 g of ai./ha) [%] | degree of damage to the plants (% damage vs untreated control), Solanum (Solanum; 30 g of ai./ha) [%] | degree of damage, Digitaria (Digitaria; 60 g of ai./ha) [%] | other results |
| --- | --- | --- | --- | --- | --- | --- | --- | --- | --- | --- | --- | --- | --- | --- | --- | --- | --- | --- | --- | --- |
| COC(=O)c1scc(C)c1S(=O)(=O)NC(=O)n1nc(SC)n(C)c1=O [Example 6] | very strong activity against weeds | very strong activity against weeds | 0 | – | – | – | – | – | – | – | – | – | – | – | – | – | – | – | – | degree of damage, Maize (Maize [3]; 400 g of ai./ha): 20%; degree of damage, Digitaria (Digitaria; 400 g of ai./ha): 90%; degree of damage, Echinochloa (Echinochloa; 400 g of ai./ha): 95%; degree of damage, Lolium (Lolium [4]; 400 g of ai./ha): 95%; degree of damage, Sorghum (Sorghum [5]; 400 g of ai./ha): 80%; degree of damage, Amaranthus (Amaranthus; 400 g of ai./ha): 100%; degree of damage, Gallium (Gallium; 400 g of ai./ha): 90%; degree of damage, Matricaria (Matricaria [6]; 400 g of ai./ha): 100%; degree of damage, Stellaria (Stellaria; 400 g of ai./ha): 100%; degree of damage to the plants (% damage vs untreated control), Lolium (Lolium [8]; 125 g of ai./ha): 95%; degree of damage to the plants (% damage vs untreated control), Poa (Poa; 125 g of ai./ha): 95%; degree of damage to the plants (% damage vs untreated control), Sorghum (Sorghum [9]; 125 g of ai./ha): 95%; degree of damage to the plants (% damage vs untreated control), Ambrosia (Ambrosia; 125 g of ai./ha): 95%; degree of damage to the plants (% damage vs untreated control), Matricaria (Matricaria [10]; 125 g of ai./ha): 95%; degree of damage to the plants (% damage vs untreated control), Solanum (Solanum; 125 g of ai./ha): 95% |
| CCSc1nn(C(=O)NS(=O)(=O)c2c(C)cccc2C(=O)OC)c(=O)n1C [Example 141] | very strong activity against weeds | very strong activity against weeds | 30 | 0 | – | – | – | – | – | – | – | – | – | – | – | – | – | – | – | degree of damage, Maize (Maize [3]; 30 g of ai./ha): 10%; degree of damage, Digitaria (Digitaria; 30 g of ai./ha): 70%; degree of damage, Echinochloa (Echinochloa; 30 g of ai./ha): 90%; degree of damage, Sorghum (Sorghum [5]; 30 g of ai./ha): 90%; degree of damage, Amaranthus (Amaranthus; 30 g of ai./ha): 100%; degree of damage, Gallium (Gallium; 30 g of ai./ha): 90%; degree of damage, Matricaria (Matricaria [6]; 30 g of ai./ha): 70%; degree of damage, Stellaria (Stellaria; 30 g of ai./ha): 95%; degree of damage to the plants (% damage vs untreated control), Lolium (Lolium [8]; 15 g of ai./ha): 90%; degree of damage to the plants (% damage vs untreated control), Poa (Poa; 15 g of ai./ha): 80%; degree of damage to the plants (% damage vs untreated control), Sorghum (Sorghum [9]; 15 g of ai./ha): 80%; degree of damage to the plants (% damage vs untreated control), Ambrosia (Ambrosia; 15 g of ai./ha): 90%; degree of damage to the plants (% damage vs untreated control), Matricaria (Matricaria [10]; 15 g of ai./ha): 80%; degree of damage to the plants (% damage vs untreated control), Solanum (Solanum; 15 g of ai./ha): 90% |
| CCOC(=O)c1scc(C)c1S(=O)(=O)NC(=O)n1nc(OCC)n(C)c1=O [Example 54] | very strong activity against weeds | very strong activity against weeds | 0 | – | 30 | 95 | 95 | 95 | 100 | 85 | 100 | 100 | 95 | 95 | 80 | 95 | 95 | 95 | – | – |
| CCOc1nn(C(=O)NS(=O)(=O)c2c(C)cccc2C(=O)OC(C)C)c(=O)n1C [Example 44] | very strong activity against weeds | very strong activity against weeds | 30 | 0 | 50 | 90 | 70 | 100 | 100 | 95 | 95 | – | – | – | – | – | – | – | 60 | degree of damage to the plants (% damage vs untreated control), Lolium (Lolium [8]; 8 g of ai./ha): 95%; degree of damage to the plants (% damage vs untreated control), Poa (Poa; 8 g of ai./ha): 95%; degree of damage to the plants (% damage vs untreated control), Sorghum (Sorghum [9]; 8 g of ai./ha): 95%; degree of damage to the plants (% damage vs untreated control), Ambrosia (Ambrosia; 8 g of ai./ha): 95%; degree of damage to the plants (% damage vs untreated control), Matricaria (Matricaria [10]; 8 g of ai./ha): 95%; degree of damage to the plants (% damage vs untreated control), Solanum (Solanum; 8 g of ai./ha): 95% |
| CCOn1c(CC)nn(C(=O)NS(=O)(=O)c2c(C)csc2C(=O)OC)c1=O [Example 38] | very strong activity against weeds | very strong activity against weeds | 0 | – | 10 | 90 | – | 95 | 100 | – | 95 | 95 | – | – | – | – | – | – | 70 | degree of damage to the plants (% damage vs untreated control), Lolium (Lolium [8]; 60 g of ai./ha): 95%; degree of damage to the plants (% damage vs untreated control), Poa (Poa; 60 g of ai./ha): 70%; degree of damage to the plants (% damage vs untreated control), Sorghum (Sorghum [9]; 60 g of ai./ha): 60%; degree of damage to the plants (% damage vs untreated control), Ambrosia (Ambrosia; 60 g of ai./ha): 95%; degree of damage to the plants (% damage vs untreated control), Matricaria (Matricaria [10]; 60 g of ai./ha): 95%; degree of damage to the plants (% damage vs untreated control), Solanum (Solanum; 60 g of ai./ha): 95% |
| CCOc1nn(C(=O)NS(=O)(=O)c2c(C)csc2C(=O)OC)c(=O)n1C [Example 1, 5-ethoxy-4-methyl-2-(4-methyl-2-methoxycarbonyl-thien-3-yl-sulphonylaminocarbonyl)-2,4-dihydro-3H-1,2,4-triazol-3-one] | very strong activity against weeds | very strong activity against weeds | – | – | – | – | – | – | – | – | – | – | 95 | 95 | 90 | 95 | 95 | 95 | – | degree of damage, Maize (Maize [3]; 125 g of ai./ha): 60%; degree of damage, Digitaria (Digitaria; 125 g of ai./ha): 95%; degree of damage, Echinochloa (Echinochloa; 125 g of ai./ha): 95%; degree of damage, Lolium (Lolium [4]; 125 g of ai./ha): 90%; degree of damage, Sorghum (Sorghum [5]; 125 g of ai./ha): 95%; degree of damage, Amaranthus (Amaranthus; 125 g of ai./ha): 100%; degree of damage, Matricaria (Matricaria [6]; 125 g of ai./ha): 100%; degree of damage, Stellaria (Stellaria; 125 g of ai./ha): 100%; degree of damage to the plants (% damage vs untreated control), Maize (Maize [7]; pre-emergence, 30 g of ai./ha, after three weeks): 10% |
| CCc1nn(C(=O)NS(=O)(=O)c2c(C)csc2C(=O)OC)c(=O)n1C [Example 5] | very strong activity against weeds | very strong activity against weeds | 0 | 20 | – | – | – | – | – | – | – | – | 95 | 95 | 90 | 95 | 95 | 95 | – | degree of damage, Maize (Maize [3]; 30 g of ai./ha): 10%; degree of damage, Digitaria (Digitaria; 30 g of ai./ha): 95%; degree of damage, Echinochloa (Echinochloa; 30 g of ai./ha): 80%; degree of damage, Lolium (Lolium [4]; 30 g of ai./ha): 70%; degree of damage, Sorghum (Sorghum [5]; 30 g of ai./ha): 90%; degree of damage, Amaranthus (Amaranthus; 30 g of ai./ha): 100%; degree of damage, Matricaria (Matricaria [6]; 30 g of ai./ha): 95%; degree of damage, Stellaria (Stellaria; 30 g of ai./ha): 90% |
| CCOC(=O)c1cccc(C)c1S(=O)(=O)NC(=O)n1nc(SC)n(C)c1=O [Example 7] | very strong activity against weeds | very strong activity against weeds | 0 | 0 | 15 | 95 | 95 | 100 | – | 95 | 95 | 100 | – | – | – | – | – | – | 95 | degree of damage to the plants (% damage vs untreated control), Lolium (Lolium [8]; 60 g of ai./ha): 95%; degree of damage to the plants (% damage vs untreated control), Sorghum (Sorghum [9]; 60 g of ai./ha): 95%; degree of damage to the plants (% damage vs untreated control), Ambrosia (Ambrosia; 60 g of ai./ha): 95%; degree of damage to the plants (% damage vs untreated control), Matricaria (Matricaria [10]; 60 g of ai./ha): 95% |
